Results on 1 compound are retold here after patent US11779602B2, “Methods of use for CAR T cells” (ENDOCYTE, INC., priority 2018, dated 2023).

Structures are written as SMILES.

Format in all cases: cell-based, human
The subject of test [1] is FR+ tumor cell targets (MDA-MB-231, THP1-FRβ, HOS-FRα). As to the kind of experiment: CAR-T cell activation markers (CD69, CD137, PD1) in co-culture with EC17-preloaded targets. As to conditions: E/T 1:1, 24 hours. How it is done: (§1) To study CAR-T cell activation in the presence of FR+ tumor cell targets (FIGS. 53A-D), co-culture experiments were initially carried out with MDA-MB-231, THP1-FRβ and HOS-FRα. […] After 24 hours of co-culture, the surface expression of T cell activation markers CD69, CD137 (4-1BB), and PD1 were analyzed by flow cytometry. For T cell exhaustion studies (FIGS. 54A-C), FR+ (KB, MDA-MB-231, HOS-FRα^fLuc, THP1-FRβ) and FR-negative (HOS-143b^fLuc, THP1-FG12) tumor cell lines were used as targets. Here, target cells were incubated on day 0 without or with 0.1 and 10 nM of EC17 for 30 min at 37° C. and the status of EC17 “pre-loading” was assessed by counterstaining cell-surface EC17 with an anti-FITC antibody (FIG. 61A). Three days later, the surface expression of PD1, LAG3, and TIM3 inhibitor receptors on co-cultured CAR-T cells were analyzed and higher frequencies of double- and triple-positive cells were considered approaching an exhausted phenotype.
(§2) To examine antigen-dependent CAR-T cell activation, MDA-MB-231, THP1-FRβ and HOS-FRα cells were preloaded with 100 nM EC17 over 30 min. […] After 24 hours of co-culture, we measured the surface expression of T cell activation markers CD69, CD137 (4-1BB) and PD1 (FIGS. 53A-D). […] Three days later, co-cultured CAR-T cells were measured for upregulation and co-expression of T cell activation/exhaustion markers PD1, LAGS and TIM3. […]

For test [2], the system named is FR+ (KB, MDA-MB-231, HOS-FRα^fLuc, THP1-FRβ) tumor cell lines. As to the kind of experiment: CAR-T cell exhaustion markers and target cell apoptosis in co-culture with EC17-preloaded targets. As to conditions: EC17 pre-loading 0.1 or 10 nM, E/T 1:2, day 2. How it is done:
as §1, §2

The test system of test [3] is FR+ cell lines (MDA-MB-231, KB, HOS-FRα, THP1-FRβ, OV90). As to the kind of experiment: Co-culture at 10 nM EC17, varying E/T ratios: specific lysis and Th1 cytokines. As to conditions: 10 nM EC17, ≥1:1 E/T ratios, 48 hours. How it is done: After 24 hours of co-culture, supernatants were harvested to determine tumor cell killing. To study the kinetics of T cell activation and FR correlation in vitro (FIGS. 60A-L), co-cultures were carried out in FR+/− cell lines at varying E/T ratios (1:27, 1:9, 1:3, 1:1, 3:1) in the continuous presence of 10 nM EC17. The kinetics of tumor cell killing were quantified after 16 and 48 hours of co-culture. Meanwhile, a portion of the supernatants was taken after 44 hours of co-culture for measurement of IFNγ, IL-2 and TNFα. Using Promega's CytoTox 96® LDH assay kit, target cell killing was quantified and expressed as specific lysis (%) which was normalized to basal levels in the absence of EC17 at defined E/T ratios. The LEGENDplex™ human Th1 cytokine panel (BioLegend, San Diego, Calif.) was used to determine CAR-T cell derived cytokines.
Specific lysis (%) was quantified after 16 and 48 hours of co-culture, and Th1 cytokines (IFNγ, IL-2, TNFα) in culture media were measured after 44 hours of co-culture. […] It generally took a longer time (48 hours) and a higher E/T ratio (≥1:1) to see significant activity in the lowest FR-expressing OV90 cells (FIGS. 60A-G). The high FR-expressing KB cells responded […] to cause significant cell death (FIG. 60F). […]

Consider `NC1=NC2N=CC(CNc3ccc(C(=O)N[C@@H](CCC(=O)NCCNC(=S)Nc4ccc(-c5c6ccc(=O)cc-6oc6cc(O)ccc56)c(C(=O)O)c4)C(=O)O)cc3)=NC2C(=O)N1` (stereo partly shown) [EC17, FA-(γ)-ethylenediamine-FITC], for which the “CAR-T cell activation (CD69, CD137, PD1)” value is reported as “strong activators” in test [1] (MDA-MB-231 and HOS-FRα preloaded with 100 nM EC17 30 min); “did trigger CAR-T cell activation, but at lower levels” in test [1] (THP1-FRβ preloaded with 100 nM EC17 30 min). Also, the “target cell apoptosis (Annexin V+)” value in test [2] was “dose-dependent apoptosis (Annexin V+) was seen in all FR+ tumor cell lines”. Besides, in test [3], the specific lysis response result is reported as “all FR+ cancer cells responded after 48 hours of co-culture”.
